Measurements published in EP0759299B1, “Potentiation of serotonin response” (ELI LILLY AND COMPANY, priority 1995, dated 1997).

Columns and labels:
Assay type in all cases: in vivo, Sprague-Dawley rats
NE = assay: Microdialysis assay of monoamines in hypothalamus of conscious rats: NE; conditions: percent of baseline, pindolol s.c. infusion 50 mg/kg/hr from 120 min, single animal
Procedure: (§1) A David Kopf stereotaxic instrument was used to implant the probe unilaterally in the hypothalamus at coordinates rostral -1.5 mm, lateral -1.3 mm, and ventral -9.0 mm (Paxinos and Watson, 1986). After a 48 hour recovery period, rats were placed in a large plastic bowl with a mounted liquid swivel system (CMA/120 system for freely moving animals, Bioanalytical Systems, West Lafayette, IN). Filtered artificial cerebrospinal fluid (CSF) (150 mM NaCl, 3.0 mM KCl, 1.7 mM CaCl2, and 0.9 mM MgCl2) was perfused through the probe at a rate of […]. The output dialysate line was fitted to a tenport HPLC valve with a 20 µl loop. At the end of each 30 minute sampling period, dialysate collected in the loop was injected on an analytical column (Spherisorb 3 µ ODS2, 2X150 mm, Keystone Scientific).
(§2) The method used to measure monoamines was as described by Perry and Fuller (1992). Briefly, dialysate collected in the 20 µl loop was assayed for 5-HT, NE and DA. The 20 µl injection went onto the column with a mobile phase which resolved NE, DA, and 5-HT: 75 mM potassium acetate, 0.5 mM ethylenediaminetetraacetic acid, 1.4 mM sodium octanesulfonic acid and 8% methanol, pH 4.9. The mobile phase for the amine column was delivered with a flow programmable pump at an initial flow rate of 0.2 ml/min increasing to 0.3 ml/min at 5 min then decreasing back to 0.2 ml/min at 26 min with a total run time of 30 min. Flow programming was used to elute the 5-HT within a 25 min time period. The electrochemical detector (EG&G, Model 400) for the amine column was set at a potential of 400 mV and a sensitivity of 0.2 nA/V. The data was collected and analyzed with a Hewlett-Packard HP1000 chromatography system which measured peak heights and calculated sample concentrations. Basal levels were measured for at least 90 minutes prior to drug administration.
Extracellular levels of the amines in microdialysates were calculated by comparing peak heights with those of 50 pmole standards. […]

DA = assay: Microdialysis assay of monoamines in hypothalamus of conscious rats: DA; conditions: percent of baseline, pindolol s.c. infusion 50 mg/kg/hr from 120 min, single animal
Procedure: as §1, §2
(§3) Extracellular levels of the amines in microdialysates were calculated by comparing peak heights with those of 50 pmole standards. The mean value of the four samples immediately preceding drug administration served as the basal level for each experiment and data was converted to percent of basal. Paired t-tests were used to compare the mean of the basal values from the time point immediately preceding drug administration to those of each time point thereafter.

5-HT = assay: Microdialysis assay of monoamines in hypothalamus of conscious rats: 5-HT; conditions: L-tryptophan 100 mg/kg i.p. at 150 min, single animal
Procedure: as §1, §2, §3

Row | SMILES | NE (%) (NE; Test 2, 150 min) | NE (%) (NE; Test 2, 210 min) | NE (%) (NE; Test 2, 240 min) | DA (%) (DA; Test 2, 150 min) | DA (%) (DA; Test 2, 180 min) | DA (%) (DA; Test 2, 210 min) | DA (%) (DA; Test 2, 240 min) | 5-HT (5-HT; Test 1, 180 min) | 5-HT (5-HT; Test 1, 210 min) | 5-HT (5-HT; Test 1, 240 min) | 5-HT (5-HT; Test 1, 270 min)
1 | CC(C)NCC(O)COc1cccc2[nH]ccc12 (racemic) [pindolol, 4-(2-hydroxy-3-isopropylaminopropoxy)-indole] | 221.5 | 232.5 | 261.9 | 87.2 | 73.2 | 70.3 | 68.5 |  |  |  | 
2 | N[C@@H](Cc1c[nH]c2ccccc12)C(=O)O [L-tryptophan] |  |  |  |  |  |  |  | 88.5% of basal | 83.6% of basal | 76.3% of basal | 73.9% of basal
